Reference: patent US20070224321A1, “Baked Goods Comprising High-Potency Sweetener” (THE COCA-COLA COMPANY, priority 2005, published 2007)

Format: physicochemical
Procedure: A solution of rebaudioside A (>97% pure by HPLC ) was prepared in double distilled water (12.5 gm in 50 mL, 25% concentration) by stirring the mixture at 40° C. for 5 minutes. An amorphous form of_rebaudioside A was formed by immediately using the clear solution for spray drying with the Lab-Plant spray drier SD-04 instrument (Lab-Plant Ltd., West Yorkshire, U.K.). The solution was fed through the feed pump into the nozzle atomizer which atomized it into a spray of droplets with the help of a constant flow of nitrogen/air. […] This dry powder (11-12 g, H2O 6.74%) was discharged continuously from the drying chamber and was collected in a bottle.

rebaudioside A [Form 4]
solubility in water at room temperature: > 35.0%
